Legend:
N2a cells [1] = assay: Toxicity test (CCK-8 cell proliferation assay) on 3D cell clusters grown on REP-coated plates; type: cell-based; conditions: Cell Cluster of Ex. 2 (A), REP-plate
Method: REP was dissolved at a concentration of 10 µM in phosphate buffered saline (PBS), and the 10 µM REP solution was aliquoted in an amount of 50 µl per well into 96-well polystyrene plates and incubated for 1 hr at 37°C. The supernatant was removed from each well to leave REP to adhere to the plates.
(§1) N2a cells ([…], purchased from the ATCC, USA) were seeded at a density of 5x10^5 cells/well into the culture plates coated with REP prepared in Example 1 (hereinafter referred to as "REP-plate"). The cell culture medium was Eagle's Minimum Essential Medium (EMEM) supplemented with 2 mM glutamine, 1 mM sodium pyruvate, 1.5 g/l sodium bicarbonate, 100 units/ml penicillin and 100 µg/ml streptomycin. The REP-plates where N2a cells were seeded were incubated for 3 days at 37°C in a 5% CO2 atmosphere with humidity of 95% to afford the formation of 3D cell clusters.
(§2) To the cell clusters obtained in Example 2 or the cells obtained in Comparative Example 1 was added a solution of PFOA (perfluorooctanoic acid, Mw 414.1 g/mol, Sigma-Aldrich, 171468-5G, 96%) with a concentration of 5 µM, 20 µM, 50 µM, 100 µM, 200 µM, 300 µM, 400 µM, 500 µM, 600 µM, 700 µM, 800 µM, 900 µM, 1,000 µM or 2,000 µM. After 3, 24 or 48 hrs of incubation, the cells were assayed for proliferation using a cell counting kit-8 (CCK-8, Dojindo, Japan).
(§3) The PFOA solution was made by dissolving PFOA in dimethyl sulfoxide (DMSO, Sigma-Aldrich, USA) at a final concentration of 5 µM, 20 µM, 50 µM, 100 µM, 200 µM, 300 µM, 400 µM, 500 µM, 600 µM, 700 µM, 800 µM, 900 µM, 1,000 µM or 2,000 µM.
(§4) For the cell proliferation assay, absorbance (OD) at 450 nm was measured on an amicroplate reader (Multiskan, Thermo USA). From the measurements, inhibitory concentration (IC50) values were calculated using TOXCALC 5.0 (Tidepool Scientific Software, USA).
(§5) A solution of PFOS (perfluorooctane sulfonates; Mw 538.2, Sigma-Aldrich, 77282-10G, ≥98.0 (T)) with a concentration of 5 µM, 20 µM, 50 µM, 100 µM, 200 µM, 300 µM, 400 µM, 500 µM, 600 µM, 700 µM, 800 µM, 900 µM, 1,000 µM or 2, 000 µM was added to the cell clusters obtained in Example 2 and to the cells obtained in Comparative Example 1. After 3, 24 or 48 hrs of incubation, the cells were assayed for proliferation using a cell counting kit-8 (CCK-8, Dojindo, Japan).
(§6) The PFOS solution was made by dissolving PFOS in dimethyl sulfoxide (DMSO, Sigma-Aldrich, USA) at a final concentration of 5 µM, 20 µM, 50 µM, 100 µM, 200 µM, 300 µM, 400 µM, 500 µM, 600 µM, 700 µM, 800 µM, 900 µM, 1,000 µM or 2,000 µM.

N2a cells [2] = assay: Toxicity test (CCK-8 cell proliferation assay) on cells cultured on plates not coated with REP; type: cell-based; conditions: Cultured Cell of C. Ex. 1 (B)
Method: as §1
Cells were cultured in the same manner as in Example 2, with the exception that the plates were not coated with REP.
as §2, §3, §4, §5, §6

[3] = Mus musculus, N2a, 3 hrs incubation
[4] = Mus musculus, N2a, 24 hrs incubation
[5] = Mus musculus, N2a, 48 hrs incubation

| SMILES | IC50 (N2a cells [1]; [3]) [µM] | IC50 (N2a cells [1]; [4]) [µM] | IC50 (N2a cells [1]; [5]) [µM] | IC50 (N2a cells [2]; [3]) [µM] | IC50 (N2a cells [2]; [4]) [µM] | IC50 (N2a cells [2]; [5]) [µM] | IC50 (N2a cells [1]; 3 hrs incubation) [µM] | IC50 (N2a cells [1]; 24 hrs incubation) [µM] | IC50 (N2a cells [1]; 48 hrs incubation) [µM] | IC50 (N2a cells [2]; 3 hrs incubation) [µM] | IC50 (N2a cells [2]; 24 hrs incubation) [µM] | IC50 (N2a cells [2]; 48 hrs incubation) [µM] |
| --- | --- | --- | --- | --- | --- | --- | --- | --- | --- | --- | --- | --- |
| O=C(O)C(F)(F)C(F)(F)C(F)(F)C(F)(F)C(F)(F)C(F)(F)C(F)(F)F [PFOA, perfluorooctanoic acid] | 632 | 495 | 423 | 511 | 389 | 310 | – | – | – | – | – | – |
| O=S(=O)(O)C(F)(F)C(F)(F)C(F)(F)C(F)(F)C(F)(F)C(F)(F)C(F)(F)C(F)(F)F [PFOS, perfluorooctane sulfonates] | – | – | – | – | – | – | 471 | 355 | 300 | 196 | 219 | 220 |
